Where a SMILES comes first, the peptide text is derived from it. The star is where a group is joined. FITC = O=C1OC2(c3ccc(O)cc3Oc3cc(O)ccc32)c2ccc(NC(=S)*)cc21

For assay [1], the target named is T1, amylin receptor 1 ECD with calcitonin receptor N124D mutation (Homo sapiens, UniProt O60894+P30988, N124D).
T1 construct: pHLsec/hRAMP1.24–111-(GSA)3-hCTR.34–141.N124D-H6 (D-pJS006); H6 (hexahistidine) (C); made in house; host or cells: HEK293 (transient transfection, secreted, N-glycosylated)
The assay can be described thus: FP saturation binding, N124D. As to conditions: for Average fluorescence intensity change upon receptor ECD binding: % of a free probe intensity, Mean ± S.D., max receptor 3 μM (sCT), 1 μM (AC413); for effect of mutation on binding affinity: compared with N124A, in words. An excerpt: pHLsec-based vectors were used to express wild-type and mutated amylin receptor 1 extracellular domains as secreted proteins to cell culture media. The plasmid DNA construct of the wild-type amylin receptor 1 extracellular domain, pHLsec/hRAMP1.24–111-(GSA)3-hCTR.34–141-H6 (H-pSL005) was previously described. The following DNA vector plasmids were made for this study: pHLsec/hRAMP1.24–111-(GSA)3-hCTR.34–141.D97A-H6 (D-pSL009), pHLsec/hRAMP1.24–111-(GSA)3-hCTR.34–141.D97E-H6 (D-pJS001), pHLsec/hRAMP1.24–111-(GSA)3-hCTR.34–141.D101A-H6 (D-pJJ003), pHLsec/hRAMP1.24–111-(GSA)3-hCTR.34–141.D101E-H6 (D-pJJ002), pHLsec/hRAMP1.24–111-(GSA)3-hCTR.34–141.E123A-H6 (D-pJJ004), pHLsec/hRAMP1.24–111-(GSA)3-hCTR.34–141.E123D-H6 (D-pJJ001), pHLsec/hRAMP1.24–111-(GSA)3-hCTR.34–141.N124A-H6 (D-pJS005), pHLsec/hRAMP1.24–111-(GSA)3-hCTR.34–141.N124D-H6 (D-pJS006), pHLsec/hRAMP1.24–111-(GSA)3-hCTR.34–141.N135A-H6 (D-pJW001), and pHLsec/hRAMP1.24–111-(GSA)3-hCTR.34–141.N135D-H6 (D-pJS002). The mutations were introduced to the calcitonin receptor extracellular domain by using DNA Assembly reaction. Coding sequences of the receptor expression vectors were confirmed with Sanger sequencing by Bionics (Seoul, Republic of Korea). DNA plasmid vectors were extracted and were purified from bacterial cells with NucleoBond® Extra Midi Plus kit (Macherey-Nagel, Germany). The purified DNA vectors were stored at −20 °C until their use for mammalian cell transfection.
The overall experimental procedure of reconstituting the functional amylin receptor 1 extracellular domain (ECD) as the fusion protein of RAMP1 ECD and the calcitonin receptor ECD was previously described. The wild-type and mutated amylin receptor 1 ECDs were expressed from HEK293 cells with transient transfection with polyethylenimine. The expressed receptor proteins were secreted to cell culture media for 4 days at 37 °C. The media were collected for the receptor protein purification. Initial dialysis was performed with the dialysis buffer (Tris 25 mM (pH 7.4), NaCl 150 mM, and imidazole 10 mM) overnight. […] Then, a size exclusion column chromatography (SEC) was performed with SEC column (Cytiva, HiLoad® 16/600 Superdex® 200 pg) and SEC buffer (Tris 50 mM (pH 7.4), NaCl 150 mM, and glycerol (v/v) 10%) as previously described. As the final step, the purified receptor proteins were dialyzed to storage buffer (HEPES 25 mM (pH 7.4), NaCl 150 mM, and glycerol (v/v) 50 %) and were stored at −60 °C until their use for the receptor–ligand binding assay. All purification procedures were performed at 4 °C.
Two peptide probes labeled with fluorescein isothiocyanate (FITC) were used for this study: FITC-labeled salmon calcitonin (sCT) fragment(22–32) and FITC-labeled AC413(6–25) with Y25P mutation. These peptide probes were custom-synthesized from Genscript (Piscataway, NJ, USA). These peptides were used as the probes for the receptor–ligand binding assay. These peptides were HPLC-purified with at least 85% purity by Genscript (Piscataway, NJ, USA). Mass spectrometry performed at Genscript confirmed the correct molecular mass of the synthesized peptides. The extinction coefficient of FITC (63,000 M^−1·cm^−1 at 495 nm, pH 7.0) was used to calculate the concentration of the peptides.
The overall procedure of the FP binding assay with a saturation binding format was previously described. A total of 10 nM FITC-labeled sCT(22–32) and 10 nM FITC-labeled AC413(6–25) with Y25P mutation were used for the receptor–ligand binding assay. For the saturation binding format, the non-linear regression curves were generated by using user-defined equations that were previously described for affinity calculation. FITC-labeled peptide probes were incubated for 1 h at room temperature with the purified receptor protein prior to fluorescence signal measurement. […]

The test system of another assay is receptor ECD. As to conditions: receptor ECD binding; cited from earlier work. The method, then:
The salmon calcitonin C-terminal fragment was reported to have micromolar affinity (KI 1~3 μM) both for calcitonin and amylin receptor ECDs. The fluorescein isothiocyanate (FITC)-labeled salmon calcitonin fragment (FITC-sCT(22–32)) was used as a peptide probe for the receptor–ligand binding assay in the current study. FITC addition to the N-terminus of an amylin receptor antagonistic peptide AC413(6–25) Y25P was previously shown to increase the peptide affinity for receptor ECD binding by more than 10-fold. Based on the binding affinity of FITC-sCT(22–32) measured in the current ...

T1 sequence (O60894 24-111): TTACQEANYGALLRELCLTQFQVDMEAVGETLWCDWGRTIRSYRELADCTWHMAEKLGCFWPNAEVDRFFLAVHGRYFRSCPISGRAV
T1 sequence (P30988 34-141 N124D): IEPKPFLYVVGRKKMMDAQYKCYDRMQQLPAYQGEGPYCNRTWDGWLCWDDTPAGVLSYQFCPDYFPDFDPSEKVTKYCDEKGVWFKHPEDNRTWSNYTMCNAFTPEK

On to `CC(C)C[C@H](NC(=O)[C@H](CCCNC(=N)N)NC(=O)[C@@H](NC(=O)[C@H](CC(C)C)NC(=O)[C@H](Cc1ccccc1)NC(=O)[C@H](CC(N)=O)NC(=O)[C@H](C)NC(=S)Nc1ccc2c(c1)C(=O)OC21c2ccc(O)cc2Oc2cc(O)ccc21)C(C)C)C(=O)N[C@@H](CCC(N)=O)C(=O)N[C@H](C(=O)N[C@@H](Cc1ccc(O)cc1)C(=O)N1CCC[C@H]1C(=O)N[C@@H](CCCNC(=N)N)C(=O)N[C@H](C(=O)N[C@@H](CC(N)=O)C(=O)N[C@H](C(=O)NCC(=O)N[C@@H](C)C(=O)N[C@@H](CC(N)=O)C(=O)N[C@H](C(=O)N1CCC[C@H]1C(N)=O)[C@@H](C)O)C(C)C)[C@@H](C)O)[C@@H](C)O` [FITC-AC413(6–25) Y25P] ({FITC}-ANFLVRLQTYPRTNVGANTP-NH2; C-terminus assumed), for which, in assay [1], the “Average fluorescence intensity change upon receptor ECD binding” value is 88 ± 8% and the “effect of mutation on binding affinity” value is “failed to restore the decreased binding affinity”. The “effect of mutation on binding affinity” value in assay [1] (listed as AC413 fragment) was “failed to restore the decreased affinity”. Further, the “increase of peptide affinity by FITC addition to the N-terminus” value in the assay with receptor ECD is reported as “more than 10 fold”.

As for `C[C@@H](O)[C@H](NC(=O)[C@H](CC(N)=O)NC(=O)[C@@H](NC(=O)[C@H](CCCNC(=N)N)NC(=O)[C@@H]1CCCN1C(=O)[C@H](Cc1ccc(O)cc1)NC(=S)Nc1ccc2c(c1)C(=O)OC21c2ccc(O)cc2Oc2cc(O)ccc21)[C@@H](C)O)C(=O)NCC(=O)N[C@@H](CO)C(=O)NCC(=O)N[C@H](C(=O)N1CCC[C@H]1C(N)=O)[C@@H](C)O` [FITC-sCT(22–32)] ({FITC}-YPRTNTGSGTP-NH2; C-terminus assumed), in assay [1], the “Average fluorescence intensity change upon receptor ECD binding” value stood at 77 ± 5% and the “effect of mutation on binding affinity” value is given as “fully restored the decreased binding affinity”. In addition, the “effect of mutation on binding affinity” value in assay [1] (listed as salmon calcitonin fragment) was “restored the decreased affinity”.

The values above are taken from publication PMC12292835, “Amylin Receptor 1 Mutagenesis Revealed a Potential Role of Calcitonin Serine 29 in Receptor Interaction” (Biomedicines, 2025).
